Assay results as given in the NIST ThermoML archive (doi:10.1021/je900124n).
“And” between values parts separate entries of the source, which are not always exact repeats. Equal values may be shown once.

Settings: Fluid (supercritical or subcritical phases), Buoyancy - hydrostatic balance with magnetic suspension - two sinkers

CCC [propane]
Settings	mass density
460 K, 1046.1 kPa	12.5822 kg/m3
460 K, 1046.4 kPa	12.585 kg/m3
460 K, 1046.5 kPa	12.5879 kg/m3
460 K, 1830.3 kPa	22.7747 kg/m3
460 K, 1830.7 kPa	22.7788 kg/m3 and 22.7791 kg/m3
460 K, 1830.9 kPa	22.7814 kg/m3
460 K, 2892.4 kPa	37.7704 kg/m3 and 37.7706 kg/m3
460 K, 2892.5 kPa	37.7721 kg/m3 and 37.7722 kg/m3
460 K, 2892.6 kPa	37.7743 kg/m3
460 K, 4123 kPa	57.2169 kg/m3
460 K, 4123.1 kPa	57.2175 kg/m3
460 K, 4123.4 kPa	57.2232 kg/m3
460 K, 4123.6 kPa	57.2271 kg/m3
460 K, 4123.8 kPa	57.2284 kg/m3
460 K, 4978.5 kPa	72.26 kg/m3
460 K, 4978.6 kPa	72.2622 kg/m3
460 K, 6345.6 kPa	99.2922 kg/m3 [middle of 4 runs]
460 K, 8445 kPa	147.718 kg/m3 and 147.719 kg/m3 and 147.717 kg/m3
460 K, 8445.1 kPa	147.721 kg/m3
460 K, 8731.7 kPa	154.767 kg/m3
460 K, 8731.9 kPa	154.768 kg/m3
460 K, 8732 kPa	154.77 kg/m3 and 154.768 kg/m3
460 K, 11420 kPa	218.352 kg/m3 [middle of 8 runs]
460.01 K, 687.74 kPa	8.1493 kg/m3
460.01 K, 687.75 kPa	8.1496 kg/m3 and 8.1495 kg/m3
460.01 K, 1046.4 kPa	12.5877 kg/m3
460.01 K, 1046.6 kPa	12.591 kg/m3
460.01 K, 4978.7 kPa	72.2625 kg/m3
460.01 K, 4978.8 kPa	72.2648 kg/m3
460.01 K, 4978.9 kPa	72.2665 kg/m3 [middle of 4 runs]
460.01 K, 8434.9 kPa	147.459 kg/m3
460.01 K, 8435 kPa	147.46 kg/m3
460.01 K, 8435.1 kPa	147.462 kg/m3 and 147.464 kg/m3 and 147.461 kg/m3
460.01 K, 8435.2 kPa	147.464 kg/m3 and 147.463 kg/m3 and 147.466 kg/m3
480 K, 716.12 kPa	8.1077 kg/m3
480 K, 716.13 kPa	8.1078 kg/m3 and 8.1079 kg/m3 and 8.108 kg/m3
480 K, 1038.1 kPa	11.8882 kg/m3
480 K, 1924.9 kPa	22.769 kg/m3 and 22.7696 kg/m3
480 K, 1925 kPa	22.771 kg/m3
480 K, 1925.1 kPa	22.7716 kg/m3 and 22.7708 kg/m3
480 K, 3069 kPa	37.9021 kg/m3
480 K, 3069.2 kPa	37.9044 kg/m3 and 37.905 kg/m3
480 K, 3069.5 kPa	37.9086 kg/m3
480 K, 3069.6 kPa	37.9115 kg/m3
480 K, 4376.6 kPa	56.9392 kg/m3
480 K, 4376.8 kPa	56.9424 kg/m3
480 K, 4377.1 kPa	56.9487 kg/m3
480 K, 4377.2 kPa	56.9487 kg/m3
480 K, 4377.6 kPa	56.955 kg/m3
480 K, 5340.5 kPa	72.2831 kg/m3 and 72.2827 kg/m3
480 K, 5340.6 kPa	72.285 kg/m3
480 K, 6880.9 kPa	99.2607 kg/m3 and 99.2626 kg/m3
480 K, 6881 kPa	99.2628 kg/m3
480 K, 9330.8 kPa	147.276 kg/m3 and 147.278 kg/m3
480 K, 9330.9 kPa	147.278 kg/m3 and 147.275 kg/m3
480 K, 9331 kPa	147.279 kg/m3
480 K, 9343.8 kPa	147.548 kg/m3
480 K, 9343.9 kPa	147.549 kg/m3 and 147.552 kg/m3
480 K, 9344 kPa	147.551 kg/m3
480 K, 9344.1 kPa	147.55 kg/m3
480 K, 9689.8 kPa	154.575 kg/m3
480 K, 9690 kPa	154.576 kg/m3
480 K, 9690.1 kPa	154.579 kg/m3
480 K, 9690.2 kPa	154.581 kg/m3 and 154.58 kg/m3
480 K, 13007 kPa	218.012 kg/m3 and 218.013 kg/m3 and 218.014 kg/m3
480.01 K, 399.65 kPa	4.4746 kg/m3 and 4.4747 kg/m3 and 4.4744 kg/m3
480.01 K, 1038.8 kPa	11.899 kg/m3
480.01 K, 1039.1 kPa	11.9024 kg/m3
480.01 K, 1039.3 kPa	11.9056 kg/m3
480.01 K, 1041.9 kPa	11.9354 kg/m3
480.01 K, 5340.5 kPa	72.2834 kg/m3 and 72.2836 kg/m3
480.01 K, 5340.6 kPa	72.2841 kg/m3 and 72.2848 kg/m3 and 72.2843 kg/m3
480.01 K, 6880.9 kPa	99.2609 kg/m3 and 99.2601 kg/m3
480.01 K, 9330.9 kPa	147.277 kg/m3
480.01 K, 9331 kPa	147.28 kg/m3 and 147.281 kg/m3
480.01 K, 13007 kPa	218.014 kg/m3
480.01 K, 13008 kPa	218.016 kg/m3
500 K, 415.04 kPa	4.4539 kg/m3 and 4.454 kg/m3
500 K, 415.05 kPa	4.454 kg/m3
500 K, 744.3 kPa	8.0688 kg/m3
500 K, 744.34 kPa	8.0689 kg/m3
500 K, 1058.4 kPa	11.5875 kg/m3 and 11.5868 kg/m3
500 K, 2016.7 kPa	22.7375 kg/m3
500 K, 2016.8 kPa	22.7381 kg/m3
500 K, 2016.9 kPa	22.7385 kg/m3
500 K, 2017 kPa	22.7394 kg/m3
500 K, 3242.8 kPa	37.9947 kg/m3
500 K, 3243.6 kPa	38.0051 kg/m3
500 K, 3243.7 kPa	38.0059 kg/m3 and 38.0062 kg/m3
500 K, 3243.9 kPa	38.0086 kg/m3
500 K, 4643.7 kPa	56.9284 kg/m3
500 K, 4644 kPa	56.9317 kg/m3
500 K, 4644.4 kPa	56.9376 kg/m3
500 K, 4644.5 kPa	56.9398 kg/m3
500 K, 4644.6 kPa	56.941 kg/m3
500 K, 7408.7 kPa	99.2014 kg/m3 and 99.1992 kg/m3
500 K, 7408.8 kPa	99.1996 kg/m3 and 99.1999 kg/m3
500 K, 10218 kPa	147.109 kg/m3 and 147.114 kg/m3
500 K, 10219 kPa	147.115 kg/m3
500 K, 10234 kPa	147.392 kg/m3 and 147.391 kg/m3 and 147.393 kg/m3
500 K, 10637 kPa	154.378 kg/m3 [middle of 5 runs]
500 K, 14582 kPa	217.649 kg/m3 and 217.645 kg/m3 and 217.644 kg/m3
500 K, 14583 kPa	217.649 kg/m3
500.01 K, 415.04 kPa	4.4539 kg/m3
500.01 K, 744.34 kPa	8.069 kg/m3
500.01 K, 744.35 kPa	8.069 kg/m3
500.01 K, 1058.3 kPa	11.5848 kg/m3
500.01 K, 1058.7 kPa	11.5888 kg/m3
500.01 K, 1059.3 kPa	11.5965 kg/m3
500.01 K, 5697.7 kPa	72.2794 kg/m3 and 72.2805 kg/m3 and 72.2784 kg/m3
500.01 K, 5697.8 kPa	72.2813 kg/m3 [middle of 4 runs]
500.01 K, 5697.9 kPa	72.2822 kg/m3
500.01 K, 10218 kPa	147.112 kg/m3 and 147.116 kg/m3
500.01 K, 10219 kPa	147.118 kg/m3 and 147.116 kg/m3
500.01 K, 14582 kPa	217.641 kg/m3 and 217.644 kg/m3
500.01 K, 14583 kPa	217.647 kg/m3
